Measured values from patent US8937067B2, “Activators of human pyruvate kinase” (The United States of America, as represented by the …, priority 2008, dated 2015).
“And” between values parts separate entries of the source, which are not always exact repeats. Equal entries are not always repeated. Where two headings read alike, the source gives them in different places.

How the values were obtained:
hPK-M2 [1] = target: T1, hPK-M2 (Homo sapiens, UniProt P14618); experiment: Fluorescent pyruvate kinase-lactate dehydrogenase (LDH) coupled secondary assay; assay type: biochemical; settings: for AC50: read-out: AC50, LDH assay; for Emax: read-out: maximum response, LDH assay
T1 sequence (P14618 whole entry): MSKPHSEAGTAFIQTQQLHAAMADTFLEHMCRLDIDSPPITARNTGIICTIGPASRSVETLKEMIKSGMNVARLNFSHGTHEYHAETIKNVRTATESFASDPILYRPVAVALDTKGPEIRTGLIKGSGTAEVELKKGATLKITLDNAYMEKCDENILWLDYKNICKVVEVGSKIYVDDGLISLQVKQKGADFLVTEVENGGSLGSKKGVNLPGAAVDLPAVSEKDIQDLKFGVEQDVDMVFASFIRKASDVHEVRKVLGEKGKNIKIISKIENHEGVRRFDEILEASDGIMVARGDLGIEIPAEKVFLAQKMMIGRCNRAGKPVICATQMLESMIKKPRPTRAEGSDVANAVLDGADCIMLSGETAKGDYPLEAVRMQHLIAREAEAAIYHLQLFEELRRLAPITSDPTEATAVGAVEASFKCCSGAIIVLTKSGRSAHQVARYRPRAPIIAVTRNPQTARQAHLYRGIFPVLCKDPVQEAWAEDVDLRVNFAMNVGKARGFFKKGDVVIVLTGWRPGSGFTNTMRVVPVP
Description: Fluorescent Pyruvate Kinase-Lactate Dehydrogenase Coupled Secondary Assay.
Plates were immediately placed in ViewLux (Perkin Elmer) and NADH fluorescence was determined at 30 second exposure intervals for between 3 and 6 minutes. Data were normalized to the uninhibited and EC100 activation using known activators such as fructose-1,6-bis-phosphate. […] Data was collected on the Perkin Elmer Viewlux.

hPK-M2 [2] = target: T1, hPK-M2; experiment: Luminescent pyruvate kinase-luciferase coupled assay (KinaseGlo); assay type: biochemical; settings: for activation at 57 µM: read-out: hPK, M2 Max. Res.; for Emax: read-out: maximum response
Description: Luminescent Pyruvate Kinase-Luciferase Coupled Assay.
Production of a luminescent signal based on the generation of ATP by pyruvate kinase was determined by using the ATP-dependent enzyme firefly luciferase. Three μL of substrate mix (at r.t.) in assay buffer (50 mM imidazole pH 7.2, 50 mM KCl, 7 mM MgCl2, 0.01% tween 20, 0.05% BSA) was dispensed into Kalypsys white solid bottom 1,536 well microtiter plates using a bottle-valve solenoid-based dispenser (Kalypsys). The final concentrations of substrates in the assay were 0.1 mM ADP and 0.5 mM PEP. […] Microtiter plates were incubated at r.t. for 1 hour and 2 uL of luciferase detection mix (Kinase-Glo, Promega at 4° C. protected from light) was added and luminescence was read with a ViewLux (Perkin Elmer) using a 5 second exposure/plate. Data was normalized for AC50 values to control columns containing uninhibited enzyme (n), and AC100 inhibition (i) according the following equation: Activation (%)=[(c−n)/(n−i)]*100 where c=compound, n=DMSO neutral, i=no enzyme control. […] Monitoring of activation was accomplished using enzyme at 3× the final concentration.

[3] = KinaseGlo, % activation at 57 μM of compound
[4] = luciferase-coupled assay, read-out: AC50
[5] = luciferase-coupled assay, relative to activation by FBP
[6] = luminescent pyruvate kinase-luciferase coupled assay (KinaseGlo), tables, read-out: hPK, M2 AC50

Structure (SMILES) | AC50 (hPK-M2 [1]) [nM] | Emax (hPK-M2 [1]) [%] | AC50 (hPK-M2 [2]; [6]) [nM] | activation at 57 µM (hPK-M2 [2]; [3]) [%] | other results
O=S(=O)(N[C@H]1CC[C@H](NS(=O)(=O)c2c(F)cccc2F)CC1)c1ccc2c(c1)OCCO2 [Compound 37, N-((trans)-4-(2,6-difluorophenylsulfonamido)cyclohexyl)-2,3-dihydrobenzo[b][1,4]dioxine-6-sulfonamide] | 7000 ± 1500 | 56 ± 11 | – | 90.8 ± 12.4 | AC50 (hPK-M2 [2]; [4]): 2110 ± 640 nM
CC(C)c1cc2c(s1)c1cnn(Cc3ccccc3F)c(=O)c1n2C [Compound 69, 2-Isopropyl-4-methyl-6-[(2-fluorophenyl)methyl]-4H-thieno[3,2-b]pyrrole[3,2-d]pyridazinone] | 1800 | 302 | 142 ± 20 | 106 ± 6.2 | Emax (hPK-M2 [2]; [5]): 100%
Cn1c2cc([S+](C)[O-])sc2c2cnn(Cc3ccccc3F)c(=O)c21 (stereo not drawn) [Compound 73, 2-Methylsulfinyl-4-methyl-6-[(2-fluorophenyl)methyl]-4H-thieno[3,2-b]pyrrole[3,2-d]pyridazinone] | 190 ± 10 | 211 | 25 ± 10 | 97.9 ± 3.1 | –
Cn1c2cc(C=O)sc2c2cnn(Cc3ccccc3F)c(=O)c21 [Compound 84, 2-Formyl-4-methyl-6-[(2-fluorophenyl)methyl]-4H-thieno[3,2-b]pyrrole[3,2-d]pyridazinone] | 100 ± 10 | 239 | 16 ± 10 | 99.8 ± 6.5 | –
Cn1c2cc(CO)sc2c2cnn(Cc3ccccc3F)c(=O)c21 [Compound 85, 2-Hydroxylmethyl-4-methyl-6-[(2-fluorophenyl)methyl]-4H-thieno[3,2-b]pyrrole[3,2-d]pyridazinone] | 220 ± 30 | 155 | 48 ± 10 | 103 ± 7.2 | –
CC(=O)c1cc2c(s1)c1cnn(Cc3ccccc3F)c(=O)c1n2C [Compound 87, 2-Acetyl-4-methyl-6-[(2-fluorophenyl)methyl]-4H-thieno[3,2-b]pyrrole[3,2-d]pyridazinone] | 150 ± 30 | 200 | 11 | 108 ± 4.9 | –
Cc1cc2c(s1)c1cnn(Cc3ccc(Cl)cc3)c(=O)c1n2C [Compound 108, 2,4-Methyl-6-[(4-chlorophenyl)methyl]-4H-thieno[3,2-b]pyrrole[3,2-d]pyridazinone] | 1650 | 191 | 326 ± 90 | 90.6 ± 3.3 | –
Cc1cc2c(s1)c1cnn(Cc3cccc(F)c3F)c(=O)c1n2C [Compound 114, 2,4-Methyl-6-[(2,3-difluorophenyl)methyl]-4H-thieno[3,2-b]pyrrole[3,2-d]pyridazinone] | – | – | 215 ± 60 | 72.8 ± 7.8 | –
Cc1cc2c(s1)c1cnn(Cc3c(F)cccc3Cl)c(=O)c1n2C [Compound 115, 2,4-Methyl-6-[(2-chloro-6-fluorophenyl)methyl]-4H-thieno[3,2-b]pyrrole[3,2-d]pyridazinone] | – | – | 60 ± 20 | 92.9 ± 4.1 | –
Cc1cc2c(s1)c1cnn(Cc3ccc(F)c(F)c3F)c(=O)c1n2C [Compound 116, 2,4-Methyl-6-[(2,3,4-trifluorophenyl)methyl]-4H-thieno[3,2-b]pyrrole[3,2-d]pyridazinone] | – | – | 174 ± 70 | 69.2 ± 14.6 | –
Cc1cc2c(s1)c1cnn(Cc3c(F)c(F)cc(F)c3F)c(=O)c1n2C [Compound 117, 2,4-Methyl-6-[(2,3,5,6-tetrafluorophenyl)methyl]-4H-thieno[3,2-b]pyrrole[3,2-d]pyridazinone] | – | – | 345 ± 60 | 59.4 ± 6.3 | –
Cc1cc2c(s1)c1cnn(Cc3cccc(C)c3F)c(=O)c1n2C [Compound 118, 2,4-Methyl-6-[(3-methyl-2-fluorophenyl)methyl]-4H-thieno[3,2-b]pyrrole[3,2-d]pyridazinone] | – | – | 35 ± 10 | 97.4 ± 6.9 | –
Cc1cc2c(s1)c1cnn(Cc3ccc(C)c(F)c3F)c(=O)c1n2C [Compound 119, 2,4-Methyl-6-[(4-methyl-2,3-fluorophenyl)methyl]-4H-thieno[3,2-b]pyrrole[3,2-d]pyridazinone] | – | – | 108 ± 30 | – | hPK, M2 Max. Res. (hPK-M2 [2]; [3]): 80.5 ± 5.8%
Cn1c2cc([S+](C)[O-])sc2c2cnn(Cc3cccc(N)c3)c(=O)c21 (stereo not drawn) [Compound 149] | – | – | – | – | activation at 57 µM (hPK-M2 [2]): 91%
O=C(COP(=O)(O)O)[C@@H](O)[C@H](O)[C@H](O)COP(=O)(O)O [FBP, fructose-1,6-bis-phosphate, reference compound] | – | – | – | – | % Activation by FBP (hPK-M2 [2]; average, 100% is approximately a 2-fold increase over basal signal): 100%

More lines, main results first:

AC50 (hPK-M2 [1]) [nM] | Emax (hPK-M2 [1]) [%] | AC50 (hPK-M2 [2]; [6]) [nM] | Structure (SMILES) | activation at 57 µM (hPK-M2 [2]; [3]) [%] | other results
300 ± 100 | 224 | 111 | COc1ccc(S(=O)(=O)N2CCN(S(=O)(=O)c3ccc4c(c3)OCCO4)CC2)cc1 [Compound 1, 1-(2,3-dihydrobenzo[b][1,4]dioxin-6-ylsulfonyl)-4-(4-methoxyphenylsulfonyl)piperazine] | 92.2 ± 12 | AC50 (hPK-M2 [2]; [4]): 63 ± 20 nM; maximum response (hPK-M2 [2]; [5]): 122.1% and 92.2%
– | 259 | 316 | O=S(=O)(c1cccc(F)c1)N1CCN(S(=O)(=O)c2ccc3c(c2)OCCO3)CC1 [Compound 7, 1-(2,3-dihydrobenzo[b][1,4]dioxin-6-ylsulfonyl)-4-(3-fluorophenylsulfonyl)piperazine] | 107 ± 8.8 | Emax (hPK-M2 [2]; [5]): 96.3%
211 ± 50 | 124 ± 30 | 90 | COc1ccc(S(=O)(=O)N2CCN(S(=O)(=O)c3c(F)cccc3F)CC2)cc1 [Compound 21, 1-(2,6-difluorophenylsulfonyl)-4-(4-methoxyphenylsulfonyl)piperazine] | 102 ± 9.2 | –
172 ± 29 | 85 ± 8 | 66 | O=S(=O)(c1c(F)cccc1F)N1CCN(S(=O)(=O)c2c(F)cccc2F)CC1 [Compound 22, 1,4-bis(2,6-difluorophenylsulfonyl)piperazine] | 74.3 ± 9.8 | –
~500 | 109 ± 11 | – | O=S(=O)(c1ccc2c(c1)OCCCO2)N1CCN(S(=O)(=O)c2c(F)cccc2F)CC1 [Compound 23, 1-(2,6-difluorophenylsulfonyl)-4-(3,4-dihydro-2,1-benzo[b][1,4]dioxepin-7-ylsulfonyl)piperazine] | 100 ± 6.6 | AC50 (hPK-M2 [2]; [4]): 103 nM
220 ± 53 | 161 ± 29 | 66 | O=S(=O)(c1ccc2ccccc2c1)N1CCN(S(=O)(=O)c2c(F)cccc2F)CC1 [Compound 26, 1-(2,6-difluorophenylsulfonyl)-4-(naphthalen-2-ylsulfonyl)piperazine] | 138 ± 11.3 | –
7000 ± 1500 | 56 ± 11 | > 35000 | O=S(=O)(N[C@H]1CC[C@@H](NS(=O)(=O)c2c(F)cccc2F)CC1)c1ccc2c(c1)OCCO2 [Compound 38, N-((cis)-4-(2,6-difluorophenylsulfonamido)cyclohexyl)-2,3-dihydrobenzo[b][1,4]dioxine-6-sulfonamide] | 60.7 ± 5.6 | AC50 (hPK-M2 [2]; [4]): 37100 ± 5000 nM
440 ± 240 | 87 ± 37 | 114 ± 20 | O=C1CN(S(=O)(=O)c2c(F)cccc2F)CCN1S(=O)(=O)c1ccc2c(c1)OCCO2 [Compound 49, 4-(2,6-difluorophenylsulfonyl)-1-(2,3-dihydrobenzo[b][1,4]dioxin-6-ylsulfonyl)piperazin-2-one] | 105 ± 9 | –
3160 | 82 | 2420 ± 160 | O=C1CN(S(=O)(=O)c2ccc3c(c2)OCCO3)CCN1S(=O)(=O)c1c(F)cccc1F [Compound 50, 1-(2,6-difluorophenylsulfonyl)-4-(2,3-dihydrobenzo[b][1,4]dioxin-6-ylsulfonyl)piperazin-2-one] | 96.9 ± 5.6 | –
– | < 80 | – | Cc1cc2c(s1)c1c(C)nn(Cc3ccccc3F)c(=O)c1n2C [Compound 92, 2,4,8-Methyl-6-[(2-fluorophenyl)methyl]-4H-thieno[3,2-b]pyrrole[3,241]-pyridazinone] | – | Emax (hPK-M2 [2]; [5]): < 80%
– | < 80 | – | Cn1c2ccsc2c2ncn(Cc3ccccc3F)c(=O)c21 [Compound 100, 4-Methyl-6-[(2-fluorophenyl)methyl]-4H-thieno[3,2-b]pyrrole[3,2-d]pyrimidinone] | – | Emax (hPK-M2 [2]; [5]): < 80%
– | – | 81 | CCNc1cccc(S(=O)(=O)N2CCN(S(=O)(=O)c3ccc4c(c3)OCCO4)CC2)c1 [Compound 136] | – | hPK, M2 Max. Res. (hPK-M2 [2]; [3]): 63.00%
– | – | 92 | CN(C)c1cccc(S(=O)(=O)N2CCN(S(=O)(=O)c3ccc4c(c3)OCCO4)CC2)c1 [Compound 138] | – | hPK, M2 Max. Res. (hPK-M2 [2]; [3]): 54.00%
– | – | 290 | CNc1cccc(S(=O)(=O)N2CCN(S(=O)(=O)c3ccc4c(c3)OCCO4)CC2)c1 [Compound 142] | – | hPK, M2 Max. Res. (hPK-M2 [2]; [3]): 67.00%
– | – | 1600 | Nc1cc(S(=O)(=O)N2CCN(S(=O)(=O)c3ccc4c(c3)OCCO4)CC2)ccn1 [Compound 146] | – | hPK, M2 Max. Res. (hPK-M2 [2]; [3]): 81.00%
– | – | 92 | COc1cccc(Cn2ncc3c4sc([S+](C)[O-])cc4n(C)c3c2=O)c1 (stereo not drawn) [Compound 148] | 89 | –
